As usually defined, the Kd is the concentration at which binding is half-saturated. A low value points to a tighter complex.

In the experiment the target is T1, human 4lg B7-H3 (Homo sapiens, UniProt Q5ZPR3).
T1 sequence (Q5ZPR3 29-534): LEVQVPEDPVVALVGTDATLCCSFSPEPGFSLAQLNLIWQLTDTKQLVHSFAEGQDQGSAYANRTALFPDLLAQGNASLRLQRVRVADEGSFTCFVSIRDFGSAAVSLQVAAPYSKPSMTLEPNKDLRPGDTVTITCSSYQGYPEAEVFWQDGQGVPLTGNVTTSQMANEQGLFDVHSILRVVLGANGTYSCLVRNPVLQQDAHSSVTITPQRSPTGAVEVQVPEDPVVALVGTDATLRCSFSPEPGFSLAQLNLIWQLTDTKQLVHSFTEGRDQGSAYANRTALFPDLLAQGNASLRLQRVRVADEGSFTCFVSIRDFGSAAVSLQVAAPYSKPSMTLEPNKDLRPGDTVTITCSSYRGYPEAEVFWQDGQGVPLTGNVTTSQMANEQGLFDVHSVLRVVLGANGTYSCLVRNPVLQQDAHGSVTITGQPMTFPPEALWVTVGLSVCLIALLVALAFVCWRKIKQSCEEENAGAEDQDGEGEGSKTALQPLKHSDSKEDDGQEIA
Description: Affinity determination by surface plasmon resonance (SPR) to 4Ig B7-H3. The conditions noted are these: 4Ig B7-H3.

[1] abbreviates: SPR KD—25° C., 25° C. flow cell temperature.
Setting [2] is: SPR KD—37° C., 37° C. flow cell temperature.

Starred links: 1 amine or outer side, 2 acyl side, 3 side chain; linkers in the order of their positions; H or OH if unused. Positions of bridges follow the written chain, without caps; N, C: chain ends. Non-standard residues stand in square brackets, D forms with d. Residues, ends and D or L forms follow the SMILES beside them. Groups on a side chain read outwards from the residue. ξ: configuration not given here. *: point of attachment. Ala(1-CH2CO2H-4-piperidyl) = N[C@@H](CC1CCN(CC(=O)O)CC1)C(=O)O; Phe(3-CH2NH2) = O=C([C@H](Cc1cccc(CN[*:3])c1)N[*:1])[*:2]; DOTA = O=C(O)CN1CCN(CC(=O)O)CCN(CC(=O)*)CCN(CC(=O)O)CC1; Trp(5-F) = N[C@@H](Cc1c[nH]c2ccc(F)cc12)C(=O)O; PEG8 = NCCOCCOCCOCCOCCOCCOCCOCCOCCC(=O)O; γGlu = O=C(O)[C@H](CCC(=O)[*:2])N[*:1]; 1Nal = N[C@@H](Cc1cccc2ccccc12)C(=O)O; Ala(4-THP) = N[C@@H](CC1CCOCC1)C(=O)O; Val(3-OH) = CC(C)(O)[C@H](N)C(=O)O; cisHyp = O=C(O)[C@@H]1C[C@H](O)CN1; 4Pal = N[C@@H](Cc1ccncc1)C(=O)O; aThr = C[C@H](O)[C@H](N)C(=O)O; Tle = CC(C)(C)[C@H](N)C(=O)O; hLeu = CC(C)CC[C@H](N)C(=O)O; NMeC = CN[C@@H](CS)C(=O)O; Nle = CCCC[C@H](N)C(=O)O; ξF = NC(Cc1ccccc1)C(=O)O; CH2 = C([*:1])[*:2]

Consider `CC(=O)N[C@@H](CCC(C)C)C(=O)N[C@@H](Cc1ccc(O)cc1)C(=O)N[C@H]1CSSC[C@@H](C(=O)N[C@@H](Cc2c[nH]c3ccccc23)C(=O)N[C@@H](Cc2ccccc2)C(=O)N[C@H](C(=O)N[C@H](CCCCNC(=O)CN2CCN(CC(=O)O)CCN(CC(=O)O)CCN(CC(=O)O)CC2)C(N)=O)[C@@H](C)O)NC(=O)[C@H](Cc2ccc(O)cc2)NC(=O)[C@H]([C@H](C)O)NC(=O)[C@H](CC(=O)O)NC(=O)[C@H](Cc2ccc(O)cc2)NC(=O)[C@H](CCCCN)NC(=O)CNC(=O)[C@H](C(C)C)NC1=O` [compound 125, Ac-hLeu-Y-C-V-G-K-Y-D-alloThr-Y-C-W-F-Thr-dLys(DOTA)-CONH2] (Ac-[hLeu]YCVGKYD[aThr]YCWFT[dK](DOTA)-NH2; disulfide 3-11), for which the Kd under setting [1] was in the range of 100 to 300 nM. On the same count and under the same terms, the figure for `CC(=O)N[C@@H](CCC(C)C)C(=O)N[C@@H](Cc1ccc(O)cc1)C(=O)N[C@H]1CSCSC[C@@H](C(=O)N[C@@H](Cc2cccc3ccccc23)C(=O)N[C@@H](Cc2ccccc2)C(=O)N2CCC[C@H]2C(N)=O)NC(=O)[C@H](Cc2ccc(O)cc2)NC(=O)[C@H](C(C)C)NC(=O)[C@H](CC(=O)O)NC(=O)[C@H](Cc2ccncc2)NC(=O)[C@H](CCCCNC(=O)CN2CCN(CC(=O)O)CCN(CC(=O)O)CCN(CC(=O)O)CC2)NC(=O)CNC(=O)[C@H](C(C)(C)C)NC1=O` [compound 330, Ac-hLeu-Y-C(CH2)-Tbg-G-Lys(DOTA)-4PyA-D-V-Y-C-1Nal-F-Pro-CONH2] (Ac-[hLeu]YC[Tle]GK(DOTA)[4Pal]DVYC[1Nal]FP-NH2; linker 3-11 via CH2) is 100 to 300 nM. With `CCCC[C@H](NC(C)=O)C(=O)N[C@@H](Cc1ccc(O)cc1)C(=O)N[C@H]1CSSC[C@@H](C(=O)N[C@@H](Cc2c[nH]c3ccccc23)C(=O)N[C@@H](Cc2ccccc2)C(=O)N[C@H](C(N)=O)[C@@H](C)O)NC(=O)[C@H](Cc2ccc(O)cc2)NC(=O)[C@H](C(C)C)NC(=O)[C@H](CC(=O)O)NC(=O)[C@H](Cc2ccc(O)cc2)NC(=O)[C@H](CCCCN)NC(=O)CNC(=O)[C@H](C(C)C)NC1=O` [compound 32, Ac-Nle-Y-C-V-G-K-Y-D-V-Y-C-W-F-Thr-CONH2] (Ac-[Nle]YCVGKYDVYCWFT-NH2; disulfide 3-11), the Kd runs as follows: under setting [1], 1 to 10 nM; under setting [2], 10 to 100 nM. Take `CC(=O)N[C@@H](CCC(C)C)C(=O)N[C@@H](Cc1ccc(O)cc1)C(=O)N[C@H]1CSSC[C@@H](C(=O)N[C@@H](Cc2cccc3ccccc23)C(=O)N[C@@H](Cc2ccccc2)C(=O)N2CCC[C@H]2C(N)=O)NC(=O)[C@H](Cc2ccc(O)cc2)NC(=O)[C@H](C(C)C)NC(=O)[C@H](CC(=O)O)NC(=O)[C@H](Cc2cccc(CNC(=O)CC[C@H](NC(=O)CC[C@H](NC(=O)CC[C@H](NC(=O)CN3CCN(CC(=O)O)CCN(CC(=O)O)CCN(CC(=O)O)CC3)C(=O)O)C(=O)O)C(=O)O)c2)NC(=O)[C@H](CCCCN)NC(=O)CNC(=O)[C@H](C(C)(C)C)NC1=O` [compound 258, Ac-hLeu-Y-C-Tbg-G-K-MAF(gE-gE-gE-DOTA)-D-V-Y-C-1Nal-F-Pro-CONH2] (Ac-[hLeu]YC[Tle]GK[Phe(3-CH2NH2)]([γGlu-γGlu-γGlu-DOTA])DVYC[1Nal]FP-NH2; disulfide 3-11): the Kd under setting [1] fell in the range of 1 to 10 nM. Same read-out and setting: the figure for `CC(=O)N[C@@H](CCC(C)C)C(=O)N[C@@H](Cc1ccc(O)cc1)C(=O)N[C@H]1CSSC[C@@H](C(=O)N[C@@H](Cc2cccc3ccccc23)C(=O)N[C@@H](Cc2ccccc2)C(=O)N2CCC[C@H]2C(=O)N[C@H](CCCCNC(=O)CN2CCN(CC(=O)O)CCN(CC(=O)O)CCN(CC(=O)O)CC2)C(N)=O)NC(=O)[C@H](Cc2ccc(O)cc2)NC(=O)[C@H](C(C)C)NC(=O)[C@H](CC(=O)O)NC(=O)[C@H](Cc2ccc(O)cc2)NC(=O)[C@H](CCCCN)NC(=O)CNC(=O)[C@H](C(C)(C)C)NC1=O` [compound 244, Ac-hLeu-Y-C-Tbg-G-K-Y-D-V-Y-C-1Nal-F-Pro-dLys(DOTA)-CONH2] (Ac-[hLeu]YC[Tle]GKYDVYC[1Nal]FP[dK](DOTA)-NH2; disulfide 3-11) is under 1 nM. In turn, `CCCC[C@H](NC(=O)[C@H](Cc1c[nH]c2ccc(F)cc12)NC(=O)[C@@H]1CSSC[C@H](NC(=O)[C@H](Cc2ccc(O)cc2)NC(=O)[C@H](CCC(C)C)NC(C)=O)C(=O)N[C@@H](C(C)(C)C)C(=O)NCC(=O)N[C@@H](CC2CCN(CC(=O)O)CC2)C(=O)N[C@@H](CC2CCOCC2)C(=O)N[C@@H](CC(=O)O)C(=O)N[C@@H](C(C)C)C(=O)N[C@@H](Cc2ccc(O)cc2)C(=O)N1)C(=O)N1CCC[C@H]1C(=O)N[C@H](CCCCNC(=O)CN1CCN(CC(=O)O)CCN(CC(=O)O)CCN(CC(=O)O)CC1)C(=O)O` [compound 321, Ac-hLeu-Y-C-Tbg-G-[Pip(CH2CO2H)Ala]-ThpA-D-V-Y-C-5FW-Nle-Pro-dLys(DOTA)-COOH] (Ac-[hLeu]YC[Tle]G[Ala(1-CH2CO2H-4-piperidyl)][Ala(4-THP)]DVYC[Trp(5-F)][Nle]P[dK](DOTA)-OH; disulfide 3-11) displayed a Kd under setting [2] of 10 to 100 nM.

Turning to `CC(C)CC[C@H](NC(=O)CCOCCOCCOCCOCCOCCOCCOCCOCCNC(=O)CN1CCN(CC(=O)O)CCN(CC(=O)O)CCN(CC(=O)O)CC1)C(=O)N[C@@H](Cc1ccc(O)cc1)C(=O)N[C@H]1CSSC[C@@H](C(=O)N[C@@H](Cc2c[nH]c3ccc(F)cc23)C(=O)N[C@@H](Cc2ccccc2)C(=O)N[C@H](C(N)=O)C(C)(C)O)NC(=O)[C@H](Cc2ccc(O)cc2)NC(=O)[C@H](C(C)C)NC(=O)[C@H](CC(=O)O)NC(=O)[C@H](CC2CCOCC2)NC(=O)[C@H](CCCCN)NC(=O)CNC(=O)[C@H](C(C)(C)C)NC1=O` [Cpd #391, DOTA-PEG8-hLeu-Y-C-Tbg-G-K-ThpA-D-V-Y-C-5FW-F-hydroxyVal-CONH2] ({DOTA-PEG8}-[hLeu]YC[Tle]GK[Ala(4-THP)]DVYC[Trp(5-F)]F[Val(3-OH)]-NH2; disulfide 3-11), the Kd under setting [2] was in the range of 1 to 10 nM. In the case of `CC(=O)N[C@@H](CCC(C)C)C(=O)N[C@@H](Cc1ccc(O)cc1)C(=O)N[C@H]1CSSC[C@@H](C(=O)N[C@@H](Cc2c[nH]c3ccc(F)cc23)C(=O)N[C@@H](Cc2ccccc2)C(=O)N[C@H](C(=O)N[C@H](CCCCNC(=O)CN2CCN(CC(=O)O)CCN(CC(=O)O)CCN(CC(=O)O)CC2)C(N)=O)[C@@H](C)O)NC(=O)[C@H](Cc2ccc(O)cc2)NC(=O)[C@H](C(C)C)NC(=O)[C@H](CC(=O)O)NC(=O)[C@H]([C@H](C)O)NC(=O)[C@H](CCCCN)NC(=O)CNC(=O)[C@H](C(C)C)NC1=O` [compound 178, Ac-hLeu-Y-C-V-G-K-alloThr-D-V-Y-C-5FW-F-Thr-dLys(DOTA)-CONH2] (Ac-[hLeu]YCVGK[aThr]DVYC[Trp(5-F)]FT[dK](DOTA)-NH2; disulfide 3-11), the Kd under setting [1] was 1 to 10 nM. On the same count and under the same terms, the figure for `CC[C@H](C)[C@@H]1NC(=O)[C@@H](NC(=O)[C@H](Cc2ccc(O)cc2)NC(=O)[C@H](CCC(C)C)NC(C)=O)CSSC[C@@H](C(=O)N[C@@H](Cc2c[nH]c3ccc(F)cc23)C(=O)N[C@@H](Cc2ccccc2)C(=O)N2C[C@@H](O)C[C@H]2C(N)=O)NC(=O)[C@H](Cc2ccc(O)cc2)NC(=O)[C@H](C(C)C)NC(=O)[C@H](CC(=O)O)NC(=O)[C@H](Cc2ccncc2)NC(=O)[C@H](CCCCNC(=O)CN2CCN(CC(=O)O)CCN(CC(=O)O)CCN(CC(=O)O)CC2)NC(=O)CNC1=O` [compound 251, Ac-hLeu-Y-C-Ile-G-Lys(DOTA)-4PyA-D-V-Y-C-5FW-F-(cisHyp)-CONH2] (Ac-[hLeu]YCIGK(DOTA)[4Pal]DVYC[Trp(5-F)]F[cisHyp]-NH2; disulfide 3-11) is 1 to 10 nM; for `CC(=O)N[C@@H](CCC(C)C)C(=O)N[C@@H](Cc1ccc(O)cc1)C(=O)N(C)[C@H]1CSSC[C@@H](C(=O)N[C@@H](Cc2c[nH]c3ccc(F)cc23)C(=O)N[C@@H](Cc2ccccc2)C(=O)N[C@H](C(=O)N[C@H](CCCCNC(=O)CN2CCN(CC(=O)O)CCN(CC(=O)O)CCN(CC(=O)O)CC2)C(=O)O)[C@@H](C)O)NC(=O)[C@H](Cc2ccc(O)cc2)NC(=O)[C@H](C(C)C)NC(=O)[C@H](CC(=O)O)NC(=O)[C@H](CC2CCOCC2)NC(=O)[C@H](CCCCN)NC(=O)CNC(=O)[C@H](C(C)C)NC1=O` [compound 361, Ac-hLeu-Y-NMeCys-V-G-K-ThpA-D-V-Y-C-5FW-F-Thr-dLys(DOTA)-COOH] (Ac-[hLeu]Y[NMeC]VGK[Ala(4-THP)]DVYC[Trp(5-F)]FT[dK](DOTA)-OH; disulfide 3-11) it is 1 to 10 nM; for `CC(=O)N[C@@H](CCC(C)C)C(=O)N[C@@H](Cc1ccc(O)cc1)C(=O)N[C@H]1CSSC[C@@H](C(=O)N[C@@H](Cc2cccc3ccccc23)C(=O)NC(Cc2ccccc2)C(=O)N2CCC[C@H]2C(=O)N[C@H](CCCCNC(=O)CC[C@H](NC(=O)CC[C@H](NC(=O)CC[C@H](NC(=O)CN2CCN(CC(=O)O)CCN(CC(=O)O)CCN(CC(=O)O)CC2)C(=O)O)C(=O)O)C(=O)O)C(N)=O)NC(=O)[C@H](Cc2ccc(O)cc2)NC(=O)[C@H](C(C)C)NC(=O)[C@H](CC(=O)O)NC(=O)[C@H](CC2CCOCC2)NC(=O)[C@H](CCCCN)NC(=O)CNC(=O)[C@H](C(C)(C)C)NC1=O` (stereo partly drawn) [compound 276, Ac-hLeu-Y-C-Tbg-G-K-ThpA-D-V-Y-C-1Nal-F-Pro-dLys(gE-gE-gE-DOTA)-CONH2] (Ac-[hLeu]YC[Tle]GK[Ala(4-THP)]DVYC[1Nal][ξF]P[dK]([γGlu-γGlu-γGlu-DOTA])-NH2; disulfide 3-11) it is 1 to 10 nM.

Values taken from patent US20250296959A1, “B7-H3 TARGETING PEPTIDES AND CONSTRUCTS THEREOF” (Mariana Oncology Inc., priority 2024, published 2025).
